Test results: publication PMC3548707, “Biocatalytic potential of laccase-like multicopper oxidases from Aspergillus niger” (Microbial Cell Factories, 2012)
Like-named read-outs stand apart in the source and are kept apart here.

Key:
[1] = system: McoB; conditions: read-out: ABTS; pH 5.0; 0.125 to 15 mM substrate
[2] = system: McoG; conditions: read-out: ABTS; pH 5.0; 0.125 to 15 mM substrate
[3] = system: T1, McoG; test: initial oxidation rate at […] nm, Michaelis-Menten fit; assay type: biochemical, Aspergillus niger; conditions: pH 5.0; 0.125 to 15 mM substrate; fit with substrate inhibition; read-out: DMPPDA
T1 construct: secreted, homologously expressed in A. niger N593, purified from culture supernatant; theoretical ~65 kDa, ~80 kDa SDS-PAGE, ~99 kDa gel filtration; monomer; blue

[4] = system: T2, McoA; test: as above; assay type: biochemical, Aspergillus niger; conditions: pH 5.0; 0.125 to 15 mM substrate; read-out: DMPPDA
T2 construct: secreted, homologously expressed in A. niger N593, purified from culture supernatant; theoretical ~64 kDa, ~110 kDa SDS-PAGE, ~120 kDa gel filtration; monomer; blue

[5] = system: T3, McoB; test: as above; assay type: biochemical, Aspergillus niger; conditions: pH 5.0; 0.125 to 15 mM substrate; fit with substrate inhibition; read-out: DMPPDA
T3 construct: secreted, homologously expressed in A. niger N593, purified from culture supernatant; theoretical ~63 kDa, ~88 kDa SDS-PAGE, ~96 kDa gel filtration; monomer; yellow

[6] = molecular target: T1, McoG; test: as above; assay type: biochemical, Aspergillus niger; conditions: substrate inhibition; second site; pH 5.0
[7] = molecular target: T3, McoB; test: as above; assay type: biochemical, Aspergillus niger; conditions: substrate inhibition; second site; pH 5.0

SMILES: CCn1c(=NN=c2sc3cc(S(=O)(=O)O)ccc3n2CC)sc2cc(S(=O)(=O)O)ccc21 [ABTS]
- Km [1]: 500 ± 100 µM
- Km [2]: 5600 ± 1000 µM

SMILES: CN(C)c1ccc(N)cc1 [DMPPDA]
- Km [3]: 1800 ± 300 µM
- Km [4]: 3600 ± 200 µM
- Km [5]: 400 ± 100 µM
- Ki [6]: 4.6 ± 0.7 mM
- Ki [7]: 22.4 ± 6.4 mM
